Measured values: paper PMC9032233, “2-{5-[(Z,2Z)-2-Chloro-3-(4-nitrophenyl)-2-propenylidene]-4-oxo-2-thioxothiazolidin-3-yl}-3-methylbutanoic Acid as a Potential Anti-Breast Cancer Molecule” (International Journal of Molecular Sciences, 2022)
Read-outs that look alike come from different tables or passages of the source.

How the values were obtained:
[1] = system: topoisomerase II; experiment: Topoisomerase II concentration in MCF-7 cell lysates (ELISA); assay type: cell-based, human; conditions: 24 h, control 2.260 ng/mL
Method: (§1) High sensitivity assay kits (EIAab Science Co., Ltd., Wuhan, China; Abcam plc., Cambridge, United Kingdom; Cloud-Clone Corp., Katy, TX, USA) were used to determine the concentrations of selected proteins in cell lysates after 24 h incubation with novel compound and reference drug in 1 µM and 5 µM concentrations. In brief, after trypsinization, cells were washed thrice with cold PBS and centrifuged at 1000× g for 5 min at 4 °C. Then, cells (1.5 × 10^6) were suspended in lysis buffer for whole-cell lysates. After the second centrifugation, cellular supernatants were frozen immediately at −70 °C. Untreated cancer cells were taken as a control.
(§2) The microtiter plates provided in the kits were pre-coated with an antibody specific to the analyzed antigen. The tests were carried out according to the manufacturer’s protocols.

[2] = system: caspase-8; experiment: Caspase-8 concentration in MCF-7 cell lysates (ELISA); assay type: cell-based, human; conditions: 24 h, control 0.901 ng/mL
Method: as §1, §2

[3] = system: MDA-MB-231 cells; experiment: Mitochondrial membrane potential analysis (JC-1), MDA-MB-231; assay type: cell-based, human; conditions: 24 h
Method: (§3) The JC-1 MitoScreen kit (BD Biosciences, San Diego, CA, USA) was used for the mitochondrial membrane potential (ΔΨm) analysis. The assay was performed using a flow cytometer (BD FACSCanto II, Becton Dickinson Biosciences Systems, San Jose, CA, USA). The Les-3331 and reference drug were used in 1 µM and 5 µM concentrations. After 24 h incubation with tested compounds, the assay was performed as described in the literature. Analysis of the obtained results was performed using FACSDiva software (version 6.1.3, BD Biosciences Systems, San Jose, CA, USA). The equipment was calibrated with BD Cytometer Setup and Tracking Beads (BD Biosciences, San Diego, CA, USA).

[4] = system: LC3B; experiment: LC3B concentration in MDA-MB-231 cell lysates (ELISA); assay type: cell-based, human; conditions: 24 h, control 1.504 ng/mL
Method: as §1, with “after 24 h incubation with novel compound and reference drug in 1 µM and 5 µM concentrations.” left out
as §2

[5] = system: LC3B; experiment: LC3B concentration in MCF-7 cell lysates (ELISA); assay type: cell-based, human; conditions: 24 h, control 1.194 ng/mL
Method: as §1, with “after 24 h incubation with novel compound and reference drug in 1 µM and 5 µM concentrations.” left out
as §2

[6] = system: MCF-7 cancer cells; experiment: [3H]-thymidine incorporation assay, MCF-7; assay type: cell-based; conditions: Homo sapiens
Method: (§4) The antiproliferative properties of the newly synthesized compound were investigated through the [^3H]-thymidine incorporation assay, as described in the literature. Cells culture was exposed to various concentrations of Les-3331 acid and reference drug for 24 h. Thereafter, cells were washed with PBS and 1 mL of fresh medium was added to each well. Then, 0.5 µCi of radioactive [^3H]-thymidine was appended, and the incubation continued for four hours. After the following incubation, the liquid was aspirated and the plate was placed on ice. Cells were washed twice with 1 mL of 0.05 M Tris-HCl buffer comprising 0.11 M NaCl, then twice after that with 1 mL of 5% TCA acid (Stanlab, Lublin, Poland). Finally, the cells were dissolved with 1 mL of 0.1 M NaOH with 1% SDS (Sigma-Aldrich, St. Louis, MO, USA) at room temperature (RT). The resulting cell lysates were transferred into scintillation vials containing 2 mL of scintillation fluid. The radioactivity was determined using Scintillation Counter 1900 TR, TRI-CARB (Packard, Perkin Elmer, Inc., San Jose, CA, USA). The intensity of DNA biosynthesis in cells was expressed in dpm of radioactive thymidine incorporated in the DNA. The radioactivity observed in untreated control cells was taken as 100%. Values from the tested compounds were expressed as a percentage of the control value.

[7] = system: caspase-9; experiment: Caspase-9 concentration in MDA-MB-231 cell lysates (ELISA); assay type: cell-based, human; conditions: 24 h, control 65.073 ng/mL
Method: as §1, §2

[8] = system: LC3A; experiment: LC3A concentration in MCF-7 cell lysates (ELISA); assay type: cell-based, human; conditions: 24 h, control 6.726 ng/mL
Method: as §1, with “after 24 h incubation with novel compound and reference drug in 1 µM and 5 µM concentrations.” left out
as §2

[9] = system: LC3A; experiment: LC3A concentration in MDA-MB-231 cell lysates (ELISA); assay type: cell-based, human; conditions: 24 h, control 2.965 ng/mL
Method: as §1, with “after 24 h incubation with novel compound and reference drug in 1 µM and 5 µM concentrations.” left out
as §2

[10] = system: MCF-7 cells; experiment: Mitochondrial membrane potential analysis (JC-1), MCF-7; assay type: cell-based, human; conditions: 24 h
Method: as §3

[11] = system: MDA-MB-231 cells; experiment: [3H]-thymidine incorporation assay, MDA-MB-231; assay type: cell-based; conditions: Homo sapiens
Method: as §4

[12] = system: MCF-7 cells; experiment: Annexin V binding assay (flow cytometry), MCF-7; assay type: cell-based, human; conditions: 24 h
Method: The effect of Les-3331 and reference drug on the induction of apoptosis process in human breast cancer cell lines was evaluated using a flow cytometer (BD FACSCanto II, Becton Dickinson Biosciences Systems, San Jose, CA, USA) and Annexin V binding Apoptosis Detection Kit II (BD Biosciences, San Diego, CA, USA). The Les-3331 and reference drug were used in 1 µM and 5 µM concentrations. The test was carried out after 24 h incubation with the tested compounds according to the manufacturer’s protocol and was previously described by our research group. Analysis of the obtained results was performed using FACSDiva software (version 6.1.3, BD Biosciences Systems, San Jose, CA, USA). The equipment was calibrated with BD Cytometer Setup and Tracking Beads (BD Biosciences, San Diego, CA, USA).

[13] = system: Beclin-1; experiment: Beclin-1 concentration in MCF-7 cell lysates (ELISA); assay type: cell-based, human; conditions: 24 h, control 7.965 ng/mL
Method: as §1, with “after 24 h incubation with novel compound and reference drug in 1 µM and 5 µM concentrations.” left out
as §2

Structure (SMILES)	Top II concentration ([1]; MCF-7, 1 µM) [ng/mL]	Top II concentration ([1]; MCF-7, 5 µM) [ng/mL]	Casp-8 concentration ([2]; 1 µM) [ng/mL]	Casp-8 concentration ([2]; 5 µM) [ng/mL]	% of cells with decreased ΔΨm ([3]; MDA-MB-231, 1 µM) [%]	% of cells with decreased ΔΨm ([3]; MDA-MB-231, 5 µM) [%]	LC3B concentration ([4]; MDA-MB-231, 1 µM) [ng/mL]	LC3B concentration ([4]; MDA-MB-231, 5 µM) [ng/mL]	LC3B concentration ([5]; MCF-7, 5 µM) [ng/mL]	Casp-9 concentration ([7]; MDA-MB-231, 1 µM) [ng/mL]	Casp-9 concentration ([7]; MDA-MB-231, 5 µM) [ng/mL]	LC3A concentration ([8]; MCF-7, 1 µM) [ng/mL]	LC3A concentration ([8]; MCF-7, 5 µM) [ng/mL]	LC3A concentration ([9]; MDA-MB-231, 5 µM) [ng/mL]	% of cells with decreased ΔΨm ([10]; MCF-7, 1 µM) [%]	% of cells with decreased ΔΨm ([10]; MCF-7, 5 µM) [%]	% of late and early apoptotic cells ([12]; MCF-7, 1 µM) [%]	% of late and early apoptotic cells ([12]; MCF-7, 5 µM) [%]	Beclin-1 concentration ([13]; 1 µM) [ng/mL]	Beclin-1 concentration ([13]; 5 µM) [ng/mL]	further results
COc1cc([C@@H]2c3cc4c(cc3[C@@H](O[C@@H]3O[C@@H]5CO[C@@H](C)O[C@H]5[C@H](O)[C@H]3O)[C@H]3COC(=O)[C@H]23)OCO4)cc(OC)c1O [Etoposide, reference compound]	1.587	1.443	0.812	0.951	11.4	15.6	0.784	0.615	0.779	86.953	93.620	4.505	4.582	1.313	10.2	18.5	10.7	10.7	7.848	6.686	LC3B concentration ([5]; MCF-7, 1 µM): 1.157 ng/mL; IC50 ([6]; MCF7, MCF-7, 24 h incubation, read-out: IC50, cell proliferation ([3H]-thymidine incorporation)): > 20 µM; LC3A concentration ([9]; MDA-MB-231, 1 µM): 2.800 ng/mL; IC50 ([11]; MDA-MB-231, 24 h incubation, read-out: IC50, cell proliferation ([3H]-thymidine incorporation)): > 20 µM
CC(C)C(C(=O)O)N1C(=O)/C(=C/C(Cl)=C/c2ccc([N+](=O)[O-])cc2)SC1=S (stereo not shown) [Les-3331, 2-{5-[(Z,2Z)-2-chloro-3-(4-nitrophenyl)-2-propenylidene]-4-oxo-2-thioxothiazolidin-3-yl}-3-methylbutanoic acid]	0.900	0.625	1.050	1.253	21.8	36.3	1.178	0.996	1.002	84.300	92.523	4.917	1.127	1.258	9.8	25.5	6.5	40.4	7.435	3.948	IC50 ([6]; MCF7, read-out: IC50, cell proliferation ([3H]-thymidine incorporation)): 5.54 µM; IC50 ([11]; MDA-MB-231, read-out: IC50, cell proliferation ([3H]-thymidine incorporation)): 8.01 µM
